# In patent US9708259B2 (Hoffmann-La Roche Inc., priority 2013, dated 2017):
# Positions count from the first letter of the chain named. Like-named read-outs stand apart in the source and are kept apart here.
# Key:
# APP processing = details: cited from earlier work
# [1] = cited from earlier work
# human M1 = biological target: T1, human M1 (Homo sapiens, UniProt P11229); experiment: M1 PAM assay (FLIPR intracellular calcium), human M1; type: cell-based
# T1 construct: expressed in transfected cells; host or cells: CHO cells
# T1 sequence (P11229 1-460): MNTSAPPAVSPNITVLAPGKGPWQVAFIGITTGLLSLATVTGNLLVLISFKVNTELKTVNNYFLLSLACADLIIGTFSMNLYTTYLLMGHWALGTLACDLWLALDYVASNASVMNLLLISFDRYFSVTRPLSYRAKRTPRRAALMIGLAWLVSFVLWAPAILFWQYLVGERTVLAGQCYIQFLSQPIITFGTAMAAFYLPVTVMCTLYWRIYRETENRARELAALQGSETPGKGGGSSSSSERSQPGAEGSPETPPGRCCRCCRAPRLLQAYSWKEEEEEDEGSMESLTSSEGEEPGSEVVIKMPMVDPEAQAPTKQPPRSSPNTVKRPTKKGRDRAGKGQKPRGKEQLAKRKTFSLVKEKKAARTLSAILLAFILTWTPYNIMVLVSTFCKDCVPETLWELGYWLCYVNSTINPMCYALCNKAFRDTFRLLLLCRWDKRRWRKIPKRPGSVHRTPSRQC
# Summary of the method: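 CHO cells expressing M1, Fluo-4AM-loaded, in HEPES/probenecid HBSS pH 7.4, 1% DMSO final. Compounds pre-incubated 2 min for agonist activity versus 30 nM acetylcholine control. For PAM activity, acetylcholine EC20 added after the 2 min pre-incubation, then 2 min more before FLIPR intracellular Ca2+ read.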
# ratM1 = biological target: T2, ratM1 (Rattus norvegicus, UniProt P08482); experiment: M1 PAM assay (FLIPR intracellular calcium), rat M1; type: cell-based
# T2 construct: expressed in transfected cells; host or cells: CHO cells (stated generally for the assay, not specifically for rat M1)
# T2 sequence (P08482 1-460): T1 sequence (P11229 1-460) with A5V, T254S, P309S, R320K, A337G, I413V
# [2] = CHO human M1 cells, FLIPR Ca2+, with EC20 of acetylcholine, first value of the cell, read-out: hM1 EC50
# [3] = rat M1, FLIPR Ca2+, second value of the cell, read-out: ratM1 EC50
Structure (SMILES),EC50 (human M1; [2]),EC50 (ratM1; [3]),further results
Cc1cc(NC(=O)CS(=O)(=O)c2cn(Cc3cc(Br)ccc3F)c3ccccc23)no1 [ML169],,,non-amyloidogenic APP processing (APP processing): promote non-amyloidogenic APP processing
CCCCCCOc1nsnc1C1=CCCN(C)C1 [Xanomeline],,,"cognitive scores and psychotic-like behaviors in patients with Alzheimer's disease ([1]; clinical studies, patients with Alzheimer's disease (AD)): improved cognitive scores and reduced psychotic-like behaviors; efficacy on symptoms in schizophrenic patients ([1]; clinical studies, schizophrenic patients): robust efficacy on positive, negative and cognitive symptoms; adverse effects (sweating, salivation, gastrointestinal distress, bradycardia) ([1]; clinical, attributed to insufficient M1 subtype selectivity): always associated with adverse effects"
"CNC(=O)c1ccc(Cn2cc(C(=O)N[C@H]3CCCC[C@@H]3O)c3c(F)cccc32)cc1 [Example 59, 4-fluoro-N-((1S,2S)-2-hydroxycyclohexyl)-1-(4-(methylcarbamoyl)benzyl)-1H-indole-3-carboxamide]",4.33 nM,4.35 nM,
"Cn1cc(-c2ccc(Cn3cc(C(=O)N[C@H]4CCOC[C@@H]4O)c4c(F)ccc(C5CC5)c43)c(F)c2)cn1 [Example 107, 7-cyclopropyl-4-fluoro-1-(2-fluoro-4-(1-methyl-1H-pyrazol-4-yl)benzyl)-N-((3R,4S)-3-hydroxytetrahydro-2H-pyran-4-yl)-1H-indole-3-carboxamide]",482 nM,767 nM,
"Cn1cc(-c2ccc(Cn3cc(C(=O)N[C@@H]4CCCC(F)(F)[C@H]4O)c4c(F)cccc43)cc2)cn1 [Example 100, N-((1R,2S)-3,3-difluoro-2-hydroxycyclohexyl)-4-fluoro-1-(4-(1-methyl-1H-pyrazol-4-yl)benzyl)-1H-indole-3-carboxamide]",4 nM,15 nM,
"CNC(=O)c1ccc(Cn2cc(C(=O)NC3CCOCC3)c3c(F)cccc32)cc1F [Example 163, 4-Fluoro-1-(3-fluoro-4-(methylcarbamoyl)benzyl)-N-(tetrahydro-2H-pyran-4-yl)-1H-indole-3-carboxamide]",59 nM,82 nM,
"O=C(N[C@H]1CCOC[C@@H]1O)c1cn(Cc2ccc(N3CCCC3=O)cc2)c2cccc(F)c12 [Example 84, 4-fluoro-N-((3R,4S)-3-hydroxytetrahydro-2H-pyran-4-yl)-1-(4-(2-oxopyrrolidin-1-yl)benzyl)-1H-indole-3-carboxamide]",182 nM,169 nM,
"Cn1cc(-c2ccc(Cn3cc(C(=O)N[C@H]4CCOC[C@@H]4O)c4c(F)cccc43)cc2)cn1 (single isomer, unassigned) [Example 55, 4-fluoro-N-((3R,4S) or (3S,4R)-3-hydroxytetrahydro-2H-pyran-4-yl)-1-(4-(1-methyl-1H-pyrazol-4-yl)benzyl)-1H-indole-3-carboxamide]",2.11 nM,2.82 nM,
"Cn1cc(-c2ccc(Cn3cc(C(=O)NC4CCCCC4)c4c(F)cccc43)c(F)c2)cn1 [Example 20, N-cyclohexyl-4-fluoro-1-(2-fluoro-4-(1-methyl-1H-pyrazol-4-yl)benzyl)-1H-indole-3-carboxamide]",204 nM,425 nM,
"O=C(N[C@H]1CCCC[C@@H]1O)c1cn(Cc2ccc(-c3ccno3)cc2)c2cccc(F)c12 [Example 138, 4-fluoro-N-((1S,2S)-2-hydroxycyclohexyl)-1-(4-(isoxazol-5-yl)benzyl)-1H-indole-3-carboxamide]",16 nM,38 nM,
"Cn1cc(-c2ccc(Cn3cc(C(=O)NCC4CCO4)c4c(F)cccc43)cc2)cn1 (stereo not shown) [Example 14, 4-fluoro-1-(4-(1-methyl-1H-pyrazol-4-yl)benzyl)-N-(oxetan-2-ylmethyl)-1H-indole-3-carboxamide]",121 nM,198 nM,
"Cn1ncc2cc(Cn3cc(C(=O)NC4CCOCC4)c4c(F)ccc(F)c43)ccc21 [Example 94, 4,7-difluoro-1-((1-methyl-1H-indazol-5-yl)methyl)-N-(tetrahydro-2H-pyran-4-yl)-1H-indole-3-carboxamide]",,,EC50 (human M1): 66 nM; EC50 (ratM1): 141 nM
"Cn1cc(-c2ccc(Cn3nc(C(=O)N[C@H]4CCCC[C@@H]4O)c4c(F)cccc43)c(F)c2)cn1 [Example 3, 4-fluoro-1-(2-fluoro-4-(1-methyl-1H-pyrazol-4-yl)benzyl)-N-((1S,2S)-2-hydroxycyclohexyl)-1H-indazole-3-carboxamide]",25.2 nM,90.6 nM,
"Cn1cc(-c2ccc(Cn3cc(C(=O)N[C@H]4COCC[C@@H]4O)c4c(F)cccc43)c(F)c2)cn1 [Example 22, 4-fluoro-1-(2-fluoro-4-(1-methyl-1H-pyrazol-4-yl)benzyl)-N-((3S,4S)-4-hydroxytetrahydro-2H-pyran-3-yl)-1H-indole-3-carboxamide]",17.8 nM,60.5 nM,
"O=C(N[C@H]1CCCC[C@@H]1O)c1cn(Cc2ccc(-c3nc[nH]n3)cc2)c2cccc(F)c12 [Example 156, 1-(4-(1H-1,2,4-triazol-3-yl)benzyl)-4-fluoro-N-((1S,2S)-2-hydroxycyclohexyl)-1H-indole-3-carboxamide]",3 nM,10 nM,
"O=C(N[C@H]1CCCC[C@@H]1O)c1cn(Cc2ccc(N3CCCC3)nc2)c2cccc(F)c12 [Example 162, 4-fluoro-N-((1S,2S)-2-hydroxycyclohexyl)-1-((6-(pyrrolidin-1-yl)pyridin-3-yl)methyl)-1H-indole-3-carboxamide]",214 nM,751 nM,
"O=C(N[C@H]1CCCC[C@@H]1O)c1cn(Cc2ccc3nccn3c2)c2cccc(F)c12 [Example 145, 4-fluoro-N-((1S,2S)-2-hydroxycyclohexyl)-1-(imidazo[1,2-a]pyridin-6-ylmethyl)-1H-indole-3-carboxamide]",,,EC50 (human M1): 17 nM; EC50 (ratM1): 36 nM
O=C(N[C@H]1CCCC[C@@H]1O)c1cn(Cc2ccc(-c3ccccc3)cn2)c2cccc(F)c12 [Example 140],103 nM,518 nM,
"Cn1cc(-c2ccc(Cn3cc(C(=O)N[C@@H]4C[C@@H]5CC[C@H]4O5)c4c(F)cccc43)c(F)c2)cn1 (relative stereo) [Example 104, N-((endo)-7-oxabicyclo[2.2.1]heptan-2-yl)-4-fluoro-1-(2-fluoro-4-(1-methyl-1H-pyrazol-4-yl)benzyl)-1H-indole-3-carboxamide]",165 nM,196 nM,
"CNC(=O)c1ccc(Cn2cc(C(=O)NC3CCOCC3)c3c(F)cccc32)cc1 [Example 132, 4-fluoro-1-(4-(methylcarbamoyl)benzyl)-N-(tetrahydro-2H-pyran-4-yl)-1H-indole-3-carboxamide]",3 nM,22 nM,
"CCc1ccc(F)c2c(C(=O)NC3CCOCC3)cn(Cc3ccc(-c4cnn(C)c4)cc3)c12 [Example 108, 7-ethyl-4-fluoro-1-(4-(1-methyl-1H-pyrazol-4-yl)benzyl)-N-(tetrahydro-2H-pyran-4-yl)-1H-indole-3-carboxamide]",414 nM,952 nM,
"Cc1ccc(F)c2c(C(=O)N[C@H]3CCCC[C@@H]3O)cn(Cc3ccc(-c4cnn(C)c4)cc3F)c12 [Example 45, 4-fluoro-1-(2-fluoro-4-(1-methyl-1H-pyrazol-4-yl)benzyl)-N-((1S,2S)-2-hydroxycyclohexyl)-7-methyl-1H-indole-3-carboxamide]",36.1 nM,74.1 nM,
"COc1ccc(Cn2cc(C(=O)N[C@H]3CCCC[C@@H]3O)c3c(F)cccc32)cc1 [Example 31, 4-fluoro-N-((1S,2S)-2-hydroxycyclohexyl)-1-(4-methoxybenzyl)-1H-indole-3-carboxamide]",,,EC50 (human M1): 90.6 nM; EC50 (ratM1): 160 nM
"N#Cc1ccc(Cn2cc(C(=O)N[C@H]3CCOC[C@@H]3O)c3c(F)cccc32)cc1 (racemic) [Example 16, 1-(4-cyanobenzyl)-4-fluoro-N-((3RS,4SR)-3-hydroxytetrahydro-2H-pyran-4-yl)-1H-indole-3-carboxamide]",,,EC50 (human M1): 237 nM; EC50 (ratM1): 337 nM
Cn1cc(-c2ccc(Cn3cc(C(=O)N[C@@H]4CCCC[C@H]4O)c4c(F)cccc43)c(F)c2)cn1 [Example 2],39 nM,208 nM,
"O=C(NC1CCOCC1)c1cn(Cc2ccc(-c3nc[nH]n3)cc2)c2cccc(F)c12 [Example 157, 1-(4-(1H-1,2,4-triazol-3-yl)benzyl)-4-fluoro-N-(tetrahydro-2H-pyran-4-yl)-1H-indole-3-carboxamide]",95 nM,117 nM,
